From ChEMBL document CHEMBL4321828, “Recent developments on (-)-colchicine derivatives: Synthesis and structure-activity relationship” (Eur J Med Chem, 2020)

What was measured:
MCF7 [1] = test: Antiproliferative activity against human MCF7 cells assessed as reduction in cell viability by MTT assay; format: functional, cell-based
Bel-7402 = test: Antiproliferative activity against human Bel7402 cells assessed as reduction in cell viability by MTT assay; format: functional, cell-based
A549 [2] = test: Antiproliferative activity against human A549 cells assessed as reduction in cell viability by MTT assay; format: functional, cell-based
A2780 = test: Antiproliferative activity against human A2780 cells assessed as reduction in cell viability by MTT assay; format: functional, cell-based
HCT-116 = test: Antiproliferative activity against human HCT116 cells assessed as reduction in cell viability incubated for 48 hrs by MTT assay; format: functional, cell-based; settings: HCT-116, 48 h
COLO 205 = test: Antiproliferative activity against human COLO205 cells assessed as reduction in cell viability incubated for 48 hrs by MTT assay; format: functional, cell-based; settings: COLO 205, 48 h
[3] = target: ATP-dependent translocase ABCB1 (Homo sapiens, UniProt P08183); test: Induction of P-gp in human LS180 cells assessed as […] in intracellular accumulation of Rh123 at 100 nM using Rho123 as substrate preincubated for 48 hrs followed by addition of Rh123 and measured after 90 mins by fluorescence based assay relative to control; format: cell-based; settings: ls180, 48 h preincubation, then 1.5 h with Rh123, 0.1 µM
SK-OV-3 = test: Antiproliferative activity against human SKOV3 cells assessed as reduction in cell viability incubated for 24 hrs by SRB assay; format: functional, cell-based; settings: SK-OV-3, 24 h
SK-MEL-2 = test: Antiproliferative activity against human SK-MEL-2 cells assessed as reduction in cell viability incubated for 24 hrs by SRB assay; format: functional, cell-based; settings: SK-MEL-2, 24 h
MCF7 [4] = test: Antiproliferative activity against human MCF7 cells assessed as reduction in cell viability incubated for 24 hrs by SRB assay; format: functional, cell-based; settings: MCF7, 24 h
A549 [5] = test: Antiproliferative activity against human A549 cells assessed as reduction in cell viability incubated for 24 hrs by SRB assay; format: functional, cell-based; settings: A549, 24 h
HCT-15 = test: Antiproliferative activity against human HCT15 cells assessed as reduction in cell viability incubated for 24 hrs by SRB assay; format: functional, cell-based; settings: HCT-15, 24 h
[6] = Antiproliferative activity against human KB-8-5-11 cells assessed as reduction in cell viability after 96 hrs by methylene blue staining based spectrophotometric method; format: functional
KB 3-1 = test: Antiproliferative activity against human KB3-1 cells assessed as reduction in cell viability after 96 hrs by methylene blue staining based spectrophotometric method; format: functional; settings: KB 3-1, 96 h
MDA-MB-231 = test: Antiproliferative activity against human MDA-MB-231 cells assessed as reduction in cell viability; format: functional, cell-based
DLD-1 = test: Antiproliferative activity against human DLD1 cells assessed as reduction in cell viability; format: functional, cell-based
LoVo = test: Antiproliferative activity against human LoVo cells assessed as reduction in cell viability; format: functional, cell-based

Chain of ATP-dependent translocase ABCB1 (P08183 whole entry): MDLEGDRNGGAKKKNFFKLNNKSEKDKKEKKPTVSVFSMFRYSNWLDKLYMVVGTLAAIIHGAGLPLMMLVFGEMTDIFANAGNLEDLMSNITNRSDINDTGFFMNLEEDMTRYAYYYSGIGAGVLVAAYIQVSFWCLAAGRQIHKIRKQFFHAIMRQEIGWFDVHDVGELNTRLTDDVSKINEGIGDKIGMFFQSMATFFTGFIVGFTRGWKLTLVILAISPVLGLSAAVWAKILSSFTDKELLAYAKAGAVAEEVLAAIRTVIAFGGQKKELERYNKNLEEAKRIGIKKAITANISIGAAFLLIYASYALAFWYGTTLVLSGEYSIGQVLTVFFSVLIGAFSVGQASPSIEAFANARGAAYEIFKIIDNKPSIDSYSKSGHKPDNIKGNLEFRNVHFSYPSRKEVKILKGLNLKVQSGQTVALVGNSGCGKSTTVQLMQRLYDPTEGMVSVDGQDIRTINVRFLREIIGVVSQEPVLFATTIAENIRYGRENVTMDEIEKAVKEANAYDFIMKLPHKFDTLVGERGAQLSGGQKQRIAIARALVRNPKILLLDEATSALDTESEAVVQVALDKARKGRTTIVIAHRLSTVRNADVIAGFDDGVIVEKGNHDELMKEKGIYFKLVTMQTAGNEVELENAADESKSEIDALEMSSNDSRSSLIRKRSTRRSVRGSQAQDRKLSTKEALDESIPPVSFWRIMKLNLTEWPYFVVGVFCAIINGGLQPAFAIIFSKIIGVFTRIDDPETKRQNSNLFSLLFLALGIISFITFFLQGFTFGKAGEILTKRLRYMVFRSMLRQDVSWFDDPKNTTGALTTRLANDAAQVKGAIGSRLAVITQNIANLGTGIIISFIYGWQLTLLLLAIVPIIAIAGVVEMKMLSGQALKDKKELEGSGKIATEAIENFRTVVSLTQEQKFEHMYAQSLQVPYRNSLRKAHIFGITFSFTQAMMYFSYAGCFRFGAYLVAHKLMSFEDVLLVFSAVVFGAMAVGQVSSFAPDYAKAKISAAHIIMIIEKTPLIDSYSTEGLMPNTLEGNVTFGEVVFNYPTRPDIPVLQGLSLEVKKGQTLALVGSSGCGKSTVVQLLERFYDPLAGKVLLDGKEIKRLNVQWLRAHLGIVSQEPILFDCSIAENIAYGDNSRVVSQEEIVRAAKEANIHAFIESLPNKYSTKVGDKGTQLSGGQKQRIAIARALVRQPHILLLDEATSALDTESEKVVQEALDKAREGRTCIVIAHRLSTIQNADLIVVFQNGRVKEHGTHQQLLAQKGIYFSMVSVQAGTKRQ

SMILES | IC50 (COLO 205) | IC50 (SK-OV-3) | IC50 (SK-MEL-2) | IC50 (MCF7 [4]) | IC50 (A549 [5]) | IC50 (HCT-15) | IC50 (HCT-116) | Activity [3] | also measured
CNc1ccc2c(cc1=O)[C@@H](NC(=O)CCC(=O)OCCCCCCO[N+](=O)[O-])CCc1cc(OC)c(OC)c(OC)c1-2 | – | – | – | – | – | – | – | – | IC50 (MCF7 [1]): 95 nM; IC50 (Bel-7402): 86 nM; IC50 (A549 [2]): 205 nM; IC50 (A2780): 109 nM
CNc1ccc2c(cc1=O)[C@@H](NC(=O)CCC(=O)OCCO[N+](=O)[O-])CCc1cc(OC)c(OC)c(OC)c1-2 | – | – | – | – | – | – | – | – | IC50 (MCF7 [1]): 103 nM; IC50 (Bel-7402): 202 nM; IC50 (A549 [2]): 106 nM; IC50 (A2780): 104 nM
CNc1ccc2c(cc1=O)[C@@H](NC(=O)CCC(=O)OC/C=C/CO[N+](=O)[O-])CCc1cc(OC)c(OC)c(OC)c1-2 | – | – | – | – | – | – | – | – | IC50 (MCF7 [1]): 202 nM; IC50 (Bel-7402): 120 nM; IC50 (A549 [2]): 135 nM; IC50 (A2780): 205 nM
CCCCCCCCCCCCCC[C@H]1OC(C)(C)O[C@H]1[C@@H](NC(=O)OC(C)(C)C)C(=O)N[C@H]1CCc2cc(OC)c(OC)c(OC)c2-c2ccc(SC)c(=O)cc21 | – | 676 nM | 130 nM | 303 nM | 228 nM | 204 nM | – | – | –
COc1cc2c(c(OC)c1OC)-c1ccc(SC)c(=O)cc1[C@@H](NC(=O)CC[C@H](NC(=O)c1ccc(NCc3cnc4nc(N)nc(O)c4n3)cc1)C(=O)O)CC2 | – | – | – | 697 nM | 4960 nM | 1160 nM | – | – | –
COc1cc2c(c(OC)c1OC)-c1ccc(N3CCOCC3)c(=O)cc1[C@@H](NC(C)=O)CC2 | 1200 nM | – | – | – | – | – | 5000 nM | 95.97% | –
COc1cc2c(c(OC)c1OC)-c1ccc(N3CCC(c4ccccc4)CC3)c(=O)cc1[C@@H](NC(C)=O)CC2 | 800 nM | – | – | – | – | – | 1000 nM | 101.03% | –
COc1cc2c(c(OC)c1OC)-c1ccc(N3CCC[C@@H]3CO)c(=O)cc1[C@@H](NC(C)=O)CC2 | 8000 nM | – | – | – | – | – | 10000 nM | 86.53% | –
COc1cc2c(c(OC)c1OC)-c1ccc(Nc3ccc(Cl)c(C(F)(F)F)c3)c(=O)cc1[C@@H](NC(C)=O)CC2 | 30 nM | – | – | – | – | – | 40 nM | 90.29% | –
COc1c(COC2CCCCO2)c2c(c(OC)c1OC)-c1ccc(OC)c(=O)cc1[C@@H](NC(C)=O)CC2 (some centres not stated) | – | – | – | – | – | – | – | – | IC50 [6]: > 1000 nM; IC50 (KB 3-1): > 1000 nM
CNc1ccc2c(cc1=O)[C@@H](NC(=O)CCC(=O)OCCCCCO[N+](=O)[O-])CCc1cc(OC)c(OC)c(OC)c1-2 | – | – | – | – | – | – | – | – | IC50 (MCF7 [1]): 100 nM; IC50 (Bel-7402): 85 nM; IC50 (A549 [2]): 86 nM; IC50 (A2780): 96 nM
COc1cc2c(c(OC)c1OC)-c1ccc(SC)c(=O)cc1[C@@H](NC(=O)Cc1ccccc1Nc1c(Cl)cccc1Cl)CC2 | – | 1500 nM | 1050 nM | 296 nM | 520 nM | 306 nM | – | – | –
COc1cc2c(c(OC)c1OC)-c1ccc(OC)c(=O)cc1[C@@H](NC(C)=O)CC2 [COLCHICINE] | – | 18 nM | 6 nM | > 300 nM | 21 nM | 9 nM | 50 nM | 62.91% | IC50 (MDA-MB-231): 25.3 nM

Continued, in another order:

IC50 (COLO 205) | IC50 (SK-OV-3) | IC50 (SK-MEL-2) | IC50 (MCF7 [4]) | IC50 (A549 [5]) | IC50 (HCT-15) | SMILES | IC50 (HCT-116) | Activity [3] | also measured
1000 nM | – | – | – | – | – | COc1cc2c(c(OC)c1OC)-c1ccc(N3CCN(C)CC3)c(=O)cc1[C@@H](NC(C)=O)CC2 | 3000 nM | 102.82% | –
– | 17.2 nM | 17.9 nM | 5.2 nM | 7.5 nM | 8.1 nM | C=C(C)[C@@H]1CC=C(C(=O)N[C@H]2CCc3cc(OC)c(OC)c(OC)c3-c3ccc(SC)c(=O)cc32)CC1 | – | – | –
800 nM | – | – | – | – | – | COc1cc2c(c(OC)c1OC)-c1ccc(N3CCC4c5ccccc5NC4C3)c(=O)cc1[C@@H](NC(C)=O)CC2 (some centres not stated) | 3000 nM | 119.7% | –
– | 29.8 nM | 12.3 nM | 7.8 nM | 14.2 nM | 18.7 nM | COc1cc2c(c(OC)c1OC)-c1ccc(SC)c(=O)cc1[C@@H](NC(=O)[C@H](O)[C@@H](O)[C@H](O)[C@H](O)CO)CC2 | – | – | –
500 nM | – | – | – | – | – | COc1cc2c(c(OC)c1OC)-c1ccc(Nc3ccc(F)c(Cl)c3)c(=O)cc1[C@@H](NC(C)=O)CC2 | 700 nM | 90.05% | –
– | 24.8 nM | 16.6 nM | 5.6 nM | 5.8 nM | 10.8 nM | COc1cc(/C=C/C(=O)N[C@H]2CCc3cc(OC)c(OC)c(OC)c3-c3ccc(SC)c(=O)cc32)ccc1O | – | – | –
– | 34.2 nM | 11.7 nM | – | 14.7 nM | 16.4 nM | COc1cccc2c1C(=O)c1c(O)c3c(c(O)c1C2=O)C[C@@](O)(C(=O)CO)C[C@@H]3O[C@H]1C[C@H](N)[C@H](O)[C@H](C)O1 [DOXORUBICIN] | – | – | IC50 (DLD-1): 511 nM; IC50 (MDA-MB-231): 936 nM; IC50 (LoVo): 520 nM
